Test results published in patent publication US20240207216A1, “COMPOSITIONS AND METHOD FOR TREATING GUT PERMEABILITY CAUSED BY HYDROGEN SULFIDE PRODUCING BACTERIA” (UNM RAINFOREST INNOVATIONS, priority 2022, published 2024).
One block for each compound: values may come before it.

How the values were obtained:
[1] = test system: Snail; test: DSV-induced Snail protein expression by Western blot; assay type: cell-based, Human; settings: 100 nM, 2 h before DSV MOI 20 for 24 h; DSV alone 7.14±0.73
Experimental: FIG. 16. Rapamycin reduces DSV-induced Snail protein expression. Polarized Caco-2 cells were treated with 100 nM rapamycin for two hours, followed by DSV infection (MOI 20) for 24 hours. Cells were harvested and lysed. (A) Protein lysate was analyzed for Snail expression by Western blotting. (B) Quantitation of Snail expression from Western blot in (A). DSV: 7.14±0.73; DSV+Rapamycin: 3.10±0.74, **p<0.01.
Human colonic epithelial cells Caco-2 were purchased from the American Type Culture Collection (ATCC, Manassas, VA). Cells were grown in DMEM+20% FBS+penicillin and streptomycin (Thermo Fisher Scientific, Inc., Waltham, MA). Cells were grown at 37° C. in a humidified incubator with 5% CO2. To allow polarization and differentiation, cells were seeded at a density of 5×10^3 cells/well in 12-well 0.4 μm trans-well inserts for three weeks. Twenty-four hours before infection, growth medium was replaced with colorless medium (DMEM+20^0/o FBS) without antibiotics. […]
Cells were lysed in lysis buffer (Thermo Fisher Scientific, Inc., Waltham, MA; catalog #87787) containing protease and phosphatase inhibitors (Thermo Fisher Scientific, Inc., Waltham, MA; catalog #1861281) for 20 minutes at 4° C. with shaking. […] Protein concentration in the supernatants was determined with Bradford reagent (Bio-Rad Laboratories, Inc., Hercules, CA). […]

[2] = test system: PI3K/Akt pathway; test: DSV-induced PI3K/Akt signaling with receptor antagonists; assay type: cell-based, murine; settings: pretreatment of cells before DSV
Experimental: PI3k/Akt pathway is activated downstream of receptors such as RTKs and G-protein coupled receptors and also by TLRs activation which is often observed in the case of infections with various bacteria. Thus, cells were treated with different TLR antagonists to check for the involvement of TLR 2, TLR 4, or TLR 5 in DSV-mediated activation of PI3K/Akt pathway. […] DSV-induced phosphorylation of AKT was inhibited by C29 (DSV:3.18±0.30; DSV+C29: 1.58±0.29, p<0.05, FIG. 14, FIG. 15A). […] PI3K/Akt is classically activated by a vast number of stimuli through receptor tyrosine kinases (RTK). Thus, tryphostin AS1478, a common tyrosine kinase inhibitor, was used as an antagonist to EGFR signaling to test whether DSV-induced PI3k/Akt/TNF/iNOS pathway was dependent on RTK-mediated signaling.

[3] = test system: sulfate reducing bacteria; settings: batch culture; cited from earlier work
[4] = test system: p-Akt/Akt; test: DSV-induced Akt phosphorylation, Western blot in RAW cells; assay type: cell-based, murine; settings: 200 μM, 3 h before DSV 4 h; DSV alone 3.18±0.30
Experimental: (§1) RAW 264.7 murine macrophage-like cells were grown in DMEM+10% FBS without any use of antibiotics or antimycotics. Cells were grown at 37° C. in a humidified incubator with 5% CO2. Prior to the day of infection, 8×10^5 cells were plated in a six-well plate and infected with DSV at multiplicity of infection 20 (MOI 20) for various times. For drug treatments, cells were incubated with LY294002 at 10 μM or 50 μM for one hour followed by DSV infection for 30 minutes or four hours. For TL2-C29 treatment, cells were incubated with the inhibitor at 200 μM for three hours followed by infection with DSV for four hours.
(§2) Cells were lysed in Lysis buffer containing protease and phosphatase inhibitors (Thermo Fisher Scientific, Inc., Waltham, MA) for 20 minutes at 4° C. Lysates were centrifuged at 12,000 rpm for five mins at 4° C. and supernatants were collected. Protein concentration in the supernatants was determined with Bradford reagent (Bio-Rad Laboratories, Inc., Hercules, CA). 50 μg of protein samples were run on SDS-PAGE (4-20% tris-glycine) and transferred to nitrocellulose membranes. Membranes were blocked in 5% milk in PBS-T (0.1% Tween 20) for 30 minutes followed by overnight incubation in primary antibodies in cold room. All antibodies except iNOS were purchased from Cell Signaling Technology (Danvers, MA): Actin (4970), p-AktS473(4060), p-Akt T308(13038), Akt (9272), p-P70S6K (9205), P70S6K (2708, TNF-α (19948). iNOS antibody was purchased from Abcam (Cambridge United Kingdom). Antibodies were diluted as recommended by the manufacturer. The following day, blots were washed with PBS-T and incubated with secondary antibodies (Cell Signaling Technology, Danvers, MA) at room temperature for one hour (dilution of 1:2000) and developed using enhanced chemiluminescence HRP signal (Thermo Fisher Scientific, Inc., Waltham, MA).
(§3) All graphs were generated using PRISM 9.4.1 GraphPad Software Inc., San Diego, CA). Data is plotted as Mean±SEM relative to control. Each experiment was conducted at least three independent times. […]

[5] = test system: TNF-α; test: DSV-induced cellular TNF-α expression, Western blot in RAW cells; assay type: cell-based, murine; settings: 200 μM, 3 h before DSV 4 h; DSV alone 24.67±2.51
Experimental: as §1, §2, §3

[6] = test system: secreted TNF-α; test: DSV-induced secreted TNF-α, Western blot of RAW cell culture supernatant; assay type: cell-based, murine; settings: 200 μM, 3 h before DSV 4 h; DSV alone 38.09±5.188
Experimental: FIG. 12. LY294002 inhibits DSV-induced activation of PI3K/Akt/TNF pathway. (A) RAW cells were treated with LY at either 10 μM or 50 μM for one hour before infection with DSV for four hours. Cells were lysed and protein lysate was prepared. Fifty μg of protein lysate was separated on SDS-PAGE and analyzed for p-Akt, Akt, TNF, iNOS, p-p70S6K, and total p70S6K by Western blotting. Actin was used as a loading control. (B) Quantification of p-Akt-Akt Western blot. (C) Quantification of p-P70/P70 Western blot. (D) Quantification of TNF-α/actin Western blot. (E) Post-infection, RAW cell culture supernatant was collected and proteins were precipitated using ethanol precipitation. Proteins were resuspended in PBS and 50 μg of proteins were loaded on SDS-PAGE and secreted TNF-α was detected using TNF-α antibody. Actin was used as a loading control.
as §1
Cells were lysed in Lysis buffer containing protease and phosphatase inhibitors (Thermo Fisher Scientific, Inc., Waltham, MA) for 20 minutes at 4° C. Lysates were centrifuged at 12,000 rpm for five mins at 4° C. and supernatants were collected. Protein concentration in the supernatants was determined with Bradford reagent (Bio-Rad Laboratories, Inc., Hercules, CA). 50 μg of protein samples were run on SDS-PAGE (4-20% tris-glycine) and transferred to nitrocellulose membranes. Membranes were blocked in 5% milk in PBS-T (0.1% Tween 20) for 30 minutes followed by overnight incubation in primary antibodies in cold room. […]

[7] = test system: iNOS; test: DSV-induced iNOS expression, Western blot in RAW cells; assay type: cell-based, murine; settings: 200 μM, 3 h before DSV 4 h; DSV alone 30.25±6.82
Experimental: as §1, §2, §3

Structure (SMILES): CO[C@H]1C[C@@H]2CC[C@@H](C)[C@@](O)(O2)C(=O)C(=O)N2CCCC[C@H]2C(=O)O[C@H]([C@H](C)C[C@@H]2CC[C@@H](O)[C@H](OC)C2)CC(=O)[C@H](C)/C=C(\C)[C@@H](O)[C@@H](OC)C(=O)[C@H](C)C[C@H](C)/C=C/C=C/C=C/1C [Rapamycin, rapamycin]
Snail expression from Western blot [1]: 3.10±0.74

Structure (SMILES): CC(=O)N[C@H]1[C@@H](OC(C)C)O[C@H](COC(C)=O)[C@@H](OC(C)=O)[C@@H]1OC(C)=O [TLR-IN-C34]
effect on DSV-induced PI3K/Akt signaling [2]: Neither TLR4 antagonist TLR-IN-C34 nor TLR5 antagonist TH1020 had any discernable effect

effect on DSV-induced PI3K/Akt signaling [2]: No inhibition
Structure (SMILES): COc1cc2ncnc(Nc3cccc(Cl)c3)c2cc1OC [tryphostin AS1478]

Structure (SMILES): [Mg+2].[O-][O-] [magnesium peroxide (MgO2), magnesium peroxide]
number of sulfate reducing bacteria [3]: inhibited | sulfate reducing rate (SRR) [3]: inhibited | sulfide concentration [3]: inhibited

Structure (SMILES): COc1cccc(C=Nc2cccc(C(=O)O)c2C)c1O [C29]
p-Akt/Akt, normalized to control [4]: 1.58±0.29 | cellular TNF-α protein, normalized to control [5]: 8.57±2.81 | secreted TNF-α, normalized to control [6]: 1.103±0.03408 | iNOS protein expression, normalized to control [7]: 2.32±1.48

Structure (SMILES): c1ccc(Cn2c(Sc3ncnc4c3sc3ncccc34)nnc2-c2ccncc2)cc1 [TH1020]
effect on DSV-induced PI3K/Akt signaling [2]: Neither TLR4 antagonist TLR-IN-C34 nor TLR5 antagonist TH1020 had any discernable effect
